{"source": "PubChem BioAssay (NCI)", "experiment_in_all_cases": "DTP human tumour cell line panel, 48 h", "key": {"CCRF-CEM leukemia": {"system": "CCRF-CEM leukemia"}, "HL-60(TB) leukemia": {"system": "HL-60(TB) leukemia"}, "PC-3 prostate": {"system": "PC-3 prostate"}, "OVCAR-4 ovarian": {"system": "OVCAR-4 ovarian"}, "MDA-N": {"system": "MDA-N"}, "NCI-H460 lung": {"system": "NCI-H460 lung"}, "OVCAR-3 ovarian": {"system": "OVCAR-3 ovarian"}, "K-562 leukemia": {"system": "K-562 leukemia"}, "UO-31 renal": {"system": "UO-31 renal"}, "TK-10 renal": {"system": "TK-10 renal"}, "SNB-75 CNS": {"system": "SNB-75 CNS"}, "BT-549 breast": {"system": "BT-549 breast"}, "HCT-116 colon": {"system": "HCT-116 colon"}, "MALME-3M melanoma": {"system": "MALME-3M melanoma"}, "CAKI-1 renal": {"system": "CAKI-1 renal"}, "NCI-H522 lung": {"system": "NCI-H522 lung"}, "OVCAR-8 ovarian": {"system": "OVCAR-8 ovarian"}, "SF-539 CNS": {"system": "SF-539 CNS"}, "SR leukemia": {"system": "SR leukemia"}, "ACHN renal": {"system": "ACHN renal"}, "HT29 colon": {"system": "HT29 colon"}, "MDA-MB-435": {"system": "MDA-MB-435"}, "MDA-MB-231 breast": {"system": "MDA-MB-231 breast"}, "HOP-62 NSCLC": {"system": "HOP-62 NSCLC"}, "SN12C renal": {"system": "SN12C renal"}, "SF-268 CNS": {"system": "SF-268 CNS"}, "MOLT-4 leukemia": {"system": "MOLT-4 leukemia"}, "IGROV1 ovarian": {"system": "IGROV1 ovarian"}, "SK-OV-3 ovarian": {"system": "SK-OV-3 ovarian"}, "SNB-19 CNS": {"system": "SNB-19 CNS"}, "EKVX NSCLC": {"system": "EKVX NSCLC"}, "SK-MEL-2 melanoma": {"system": "SK-MEL-2 melanoma"}, "A549 NSCLC": {"system": "A549 NSCLC"}, "RPMI-8226 leukemia": {"system": "RPMI-8226 leukemia"}, "LOX IMVI melanoma": {"system": "LOX IMVI melanoma"}, "786-0 renal": {"system": "786-0 renal"}, "SK-MEL-28 melanoma": {"system": "SK-MEL-28 melanoma"}, "KM12 colon": {"system": "KM12 colon"}, "HCT-15 colon": {"system": "HCT-15 colon"}, "SF-295 CNS": {"system": "SF-295 CNS"}, "MCF7 breast": {"system": "MCF7 breast"}, "SW-620 colon": {"system": "SW-620 colon"}, "HOP-92 NSCLC": {"system": "HOP-92 NSCLC"}, "DU-145 prostate": {"system": "DU-145 prostate"}, "UACC-62 melanoma": {"system": "UACC-62 melanoma"}, "NCI/ADR-RES ovarian": {"system": "NCI/ADR-RES ovarian"}, "NCI-H23 lung": {"system": "NCI-H23 lung"}, "UACC-257 melanoma": {"system": "UACC-257 melanoma"}, "OVCAR-5 ovarian": {"system": "OVCAR-5 ovarian"}, "COLO 205 colon": {"system": "COLO 205 colon"}, "HS 578T breast": {"system": "HS 578T breast"}, "NCI-H226 lung": {"system": "NCI-H226 lung"}, "U251 CNS": {"system": "U251 CNS"}, "M14 melanoma": {"system": "M14 melanoma"}}, "note": "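48-hour exposure; five concentrations; linearly interpolated endpoints. TGI marks complete inhibition of growth.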", "data": [{"smiles": "O=C1/C(=C/c2cccc(Br)c2)Cc2ccccc21", "values": [{"measurement": "TGI", "setting": "CCRF-CEM leukemia", "result": "> 100", "unit": "µM"}, {"measurement": "TGI", "setting": "HL-60(TB) leukemia", "result": "> 100", "unit": "µM"}, {"measurement": "TGI", "setting": "PC-3 prostate", "result": "> 100", "unit": "µM"}, {"measurement": "TGI", "setting": "OVCAR-4 ovarian", "result": "> 100", "unit": "µM"}, {"measurement": "TGI", "setting": "MDA-N", "result": "> 100", "unit": "µM"}, {"measurement": "TGI", "setting": "NCI-H460 lung", "result": "> 100", "unit": "µM"}, {"measurement": "TGI", "setting": "OVCAR-3 ovarian", "result": "> 100", "unit": "µM"}, {"measurement": "TGI", "setting": "K-562 leukemia", "result": "> 100", "unit": "µM"}, {"measurement": "TGI", "setting": "UO-31 renal", "result": "> 100", "unit": "µM"}, {"measurement": "TGI", "setting": "TK-10 renal", "result": "> 100", "unit": "µM"}, {"measurement": "TGI", "setting": "SNB-75 CNS", "result": "> 100", "unit": "µM"}, {"measurement": "TGI", "setting": "BT-549 breast", "result": "> 100", "unit": "µM"}, {"measurement": "TGI", "setting": "HCT-116 colon", "result": "> 100", "unit": "µM"}, {"measurement": "TGI", "setting": "MALME-3M melanoma", "result": "> 100", "unit": "µM"}, {"measurement": "TGI", "setting": "CAKI-1 renal", "result": "> 100", "unit": "µM"}, {"measurement": "TGI", "setting": "NCI-H522 lung", "result": "> 100", "unit": "µM"}, {"measurement": "TGI", "setting": "OVCAR-8 ovarian", "result": "> 100", "unit": "µM"}, {"measurement": "TGI", "setting": "SF-539 CNS", "result": "> 100", "unit": "µM"}, {"measurement": "TGI", "setting": "SR leukemia", "result": "> 100", "unit": "µM"}, {"measurement": "TGI", "setting": "ACHN renal", "result": "> 100", "unit": "µM"}, {"measurement": "TGI", "setting": "HT29 colon", "result": "> 100", "unit": "µM"}, {"measurement": "TGI", "setting": "MDA-MB-435", "result": "> 100", "unit": "µM"}, {"measurement": "TGI", "setting": "MDA-MB-231 breast", "result": "> 100", "unit": "µM"}, {"measurement": "TGI", "setting": "HOP-62 NSCLC", "result": "> 100", "unit": "µM"}, {"measurement": "TGI", "setting": "SN12C renal", "result": "> 100", "unit": "µM"}, {"measurement": "TGI", "setting": "SF-268 CNS", "result": "> 100", "unit": "µM"}, {"measurement": "TGI", "setting": "MOLT-4 leukemia", "result": "> 100", "unit": "µM"}, {"measurement": "TGI", "setting": "IGROV1 ovarian", "result": "> 100", "unit": "µM"}, {"measurement": "TGI", "setting": "SK-OV-3 ovarian", "result": "> 100", "unit": "µM"}, {"measurement": "TGI", "setting": "SNB-19 CNS", "result": "> 100", "unit": "µM"}, {"measurement": "TGI", "setting": "EKVX NSCLC", "result": "> 100", "unit": "µM"}, {"measurement": "TGI", "setting": "SK-MEL-2 melanoma", "result": "> 100", "unit": "µM"}, {"measurement": "TGI", "setting": "A549 NSCLC", "result": "> 100", "unit": "µM"}, {"measurement": "TGI", "setting": "RPMI-8226 leukemia", "result": "> 100", "unit": "µM"}, {"measurement": "TGI", "setting": "LOX IMVI melanoma", "result": "> 100", "unit": "µM"}, {"measurement": "TGI", "setting": "786-0 renal", "result": "> 100", "unit": "µM"}, {"measurement": "TGI", "setting": "SK-MEL-28 melanoma", "result": "> 100", "unit": "µM"}, {"measurement": "TGI", "setting": "KM12 colon", "result": "> 100", "unit": "µM"}, {"measurement": "TGI", "setting": "HCT-15 colon", "result": "> 100", "unit": "µM"}, {"measurement": "TGI", "setting": "SF-295 CNS", "result": "> 100", "unit": "µM"}, {"measurement": "TGI", "setting": "MCF7 breast", "result": "> 100", "unit": "µM"}, {"measurement": "TGI", "setting": "SW-620 colon", "result": "> 100", "unit": "µM"}, {"measurement": "TGI", "setting": "HOP-92 NSCLC", "result": "> 100", "unit": "µM"}, {"measurement": "TGI", "setting": "DU-145 prostate", "result": "> 100", "unit": "µM"}, {"measurement": "TGI", "setting": "UACC-62 melanoma", "result": "> 100", "unit": "µM"}, {"measurement": "TGI", "setting": "NCI/ADR-RES ovarian", "result": "> 100", "unit": "µM"}, {"measurement": "TGI", "setting": "NCI-H23 lung", "result": "> 100", "unit": "µM"}, {"measurement": "TGI", "setting": "UACC-257 melanoma", "result": "> 100", "unit": "µM"}, {"measurement": "TGI", "setting": "OVCAR-5 ovarian", "result": "> 100", "unit": "µM"}, {"measurement": "TGI", "setting": "COLO 205 colon", "result": 89.7, "unit": "µM"}, {"measurement": "TGI", "setting": "HS 578T breast", "result": "> 100", "unit": "µM"}, {"measurement": "TGI", "setting": "NCI-H226 lung", "result": "> 100", "unit": "µM"}, {"measurement": "TGI", "setting": "U251 CNS", "result": "> 100", "unit": "µM"}, {"measurement": "TGI", "setting": "M14 melanoma", "result": "> 100", "unit": "µM"}]}]}
